Like-named read-outs stand apart in the source and are kept apart here.
How the values were obtained:
[1] = test system: transplanted tumor Heps
Procedure: (§1) Experimental groups: three dosage groups were set up for DPT, 10, 5 and 2.5 mg/kg; the blank control group: cyclophosphamide (CTX) group, Etoposide group 20 mg/kg.
(§2) Administration route: injection via tail vein, it is administered in a dosage of 0.4 ml/20 g body weight. Administration period: the drug is administrated 24 hours after the inoculation, once every two days for four times in total.
(§3) Experimental methods: 60 ICR mice with standard weight of from 18 to 22 g are inoculated with S-180 or Heps solid tumor according to the test method for transplanted tumors, hypodermic inoculation with 0.2 ml is carried out in the armpit in the anterior limb of every mouse. The body weight is determined 24 hours after the inoculation and they are randomly divided into six groups: the blank control group, the CTX group (20 mg/kg), the Etoposide group (20 mg/kg), the DPT group (10, 5 and 2.5 mg/Kg). The drug is administrated 24 hours after the inoculation once for every two days for 4 times, and tumor-bearing mice are killed on the next after drug withdrawal and their body weights are measured, and the separated tumor mess is weighed, and all of the data are subjected to statistical analyses (t-test).

[2] = test system: transplanted tumor S180
Procedure: as §1, §2, §3

[3] = test system: human non-small cell lung cancer H460 xenograft tumor; conditions: for Tumor volume / RTV / T/C / Gross tumor volume: 20 mg/kg iv
Procedure: (§6) The test article: the inclusion complex of DPT and SBE-β-CD, the content is 5.05%. Preparation Method: it is dissolved in a proper amount of saline after gentle shaking and the concentration is 0.4 mg/ml (which is the test solution for the 8 mg/kg group); other concentrations are prepared by diluting the stock solution of 0.4 mg/ml to the required concentration with physiological saline.
(§7) The control article: Etoposide injection produced by Qilu Pharmaceutical Co., Ltd. the batch number is 8060012EV, specification: 5 ml:0.1 g. Preparation Method: Etoposide injection is a kind of transparent sticky liquid and it is diluted with a proper amount of physiological saline and gently shaken and prepared as a homogeneous solution, and the concentration is 1 mg/ml.
(§8) Dosage setting: the high dosage group of DPT is 8 mg/kg, the medium dosage group of DPT is 4 mg/kg and the low dosage group of DPT is 2 mg/kg. The dosage for the positive control group of Etoposide injection is 20 mg/kg.
(§9) Experimental animals: source, germline and strain: BALB/c nude mice are provided by the Institute of Experimental Animals, Chinese Academy of Medical Sciences. Age: 35-40 days; body weight: 18-24 g; gender: male.
(§10) Transplanted tumor: the transplanted tumor for human nonsmall-cell lung cancer H460 in nude mice, and it is established by inoculating the human nonsmall-cell lung cancer H460 cell line hypodermically in the armpit of nude mice. 2×10^6 cells are inoculated.
(§11) Human non-small cell lung cancer H460 cell line in exponential phase of growth is prepared as a cell suspension of 2×10^7/ml under sterile conditions, 0.1 ml thereof is inoculated hypodermically in the right armpit of nude mice. The diameters of the transplanted tumors in the nude mice are measured by a sliding caliper, and the animals are randomly divided into different groups when the tumors grow up to the amount of 100 to 300 mm^3. The antitumor efficacy of the test article is dynamically observed by measuring the diameter of the tumor. The diameters of the tumor are determined once for every two days. The administration volume is 0.4 ml/20 g. The mice are killed 21 days after administration, and the tumors are surgically isolated and weighed. The calculation formula for tumor volume (TV) is as follows: TV=½×a×b^2 Wherein a and b represents for the length and the width, respectively.
(§12) The relative tumor volume (RTV) is calculated according to the measured results, and the calculation formula is as follows: RTV=Vt/V0. Wherein V0 is the tumor size measured during grouping and drug administration (d0), Vt is the tumor size in every measurements. The evaluation parameter for antitumor activity is the relative tumor growth rate T/C (%) which is calculated according to the formula as follows:
(§13) [formula] TRTV: the treatment group RTV; CRTV: the negative control group: RTV.

[4] = test system: human non-small cell lung cancer H460 xenograft tumor; conditions: mouse, in vivo, iv, 20 mg/kg
Procedure: as §6, §7, §8, §9, §10, §11, §12, §13

[5] = test system: C-6 (rat neurogliocytoma cell line); assay: in vitro growth inhibition of tumor cells, C-6; format: cell-based; conditions: C6, 48 hours
Procedure: (§4) The tumor strains are A-549 (human lung adenocarcinoma cell line), BGC-823 (human gastric cancer cell line), C-6 (rat neurogliocytoma cell line), Hep G2 (human hepatic cancer cell line), HL-60 (human leukemia cell line), K-562 (human erythremia cell line) and Hela (human cervical cancer cell line). […] The drug was prepared as a stock solution of 10^−2 M by using physiological saline and diluted into the test solution in a gradient composed of five concentrations: C1 5×10^−5 M, C2 10^−5 M, C3 10^−6 M, C4 10^−7 M and C5 10^−8 M.
(§5) Experimental method: different tumor cells in exponential growth phase are inoculated in 96-well plates in a certain amount and the selected samples are added after the cells are cultured for 24 hours (suspension cells can be directly added after being inoculated), after the cells are incubated at 37° C. and 5% CO2 for another 48 hours, […] is added for further incubation for another 4 hours, and finally the samples are examined on a microplate reader after dissolving with DMSO.

[6] = test system: Hep G2 (human hepatic cancer cell line); assay: in vitro growth inhibition of tumor cells, Hep G2; format: cell-based; conditions: HepG2, 48 hours
Procedure: as §4, §5

[7] = test system: HL-60 (human leukemia cell line); assay: in vitro growth inhibition of tumor cells, HL-60; format: cell-based; conditions: 48 hours
Procedure: as §4, §5

[8] = test system: K-562 (human erythremia cell line); assay: in vitro growth inhibition of tumor cells, K-562; format: cell-based; conditions: K562, 48 hours
Procedure: as §4, §5

[9] = test system: BGC-823 (human gastric cancer cell line); assay: in vitro growth inhibition of tumor cells, BGC-823; format: cell-based; conditions: 48 hours
Procedure: as §4, §5

[10] = test system: Hela (human cervical cancer cell line); assay: in vitro growth inhibition of tumor cells, Hela; format: cell-based; conditions: hela, 48 hours
Procedure: as §4, §5

[11] = test system: A-549 (human lung adenocarcinoma cell line); assay: in vitro growth inhibition of tumor cells, A-549; format: cell-based; conditions: A549, 48 hours
Procedure: as §4, §5

[12] = Heps mice, 20 mg/kg iv, once every two days, four times
[13] = S180 mice, 20 mg/kg iv, once every two days, four times
[14] = H460 nude mice, 20 mg/kg iv three times a week, 9 times, 21 days

O=P1(N(CCCl)CCCl)NCCCO1 (centres unmarked) [CTX, cyclophosphamide, reference compound]
Body weight Before administration ([1]; Heps mice, 20 mg/kg iv group): 21.30 ± 1.49 g | Body weight After administration [1, 12]: 22.50 ± 3.69 g | Tumor inhibition rate [1, 12]: 66.94% | Tumor weight [1, 12]: 0.65 ± 0.21 g | Body weight Before administration ([2]; S180 mice, 20 mg/kg iv group): 19.80 ± 1.69 g | Body weight After administration [2, 13]: 23.00 ± 2.50 g | Tumor weight [2, 13]: 0.98 ± 0.22 g | Tumor-inhibition rate [2, 13]: 46.77%

COc1cc([C@@H]2c3cc4c(cc3[C@@H](O[C@@H]3O[C@@H]5CO[C@@H](C)O[C@H]5[C@H](O)[C@H]3O)[C@H]3COC(=O)[C@H]23)OCO4)cc(OC)c1O [Etoposide, reference compound]
Tumor inhibition rate [1, 12]: 59.31% | Tumor weight [1, 12]: 0.80 ± 0.37 g | Body weight After administration ([1]; mouse, in vivo, iv, 20 mg/kg): 22.40 ± 2.41 g | Body weight Before administration ([1]; mouse, in vivo, iv, 20 mg/kg): 21.10 ± 1.37 g | Tumor weight [2, 13]: 1.05 ± 0.35 g | Tumor-inhibition rate [2, 13]: 43.03% | Body weight After administration ([2]; mouse, in vivo, iv, 20 mg/kg): 23.30 ± 1.83 g | Body weight Before administration ([2]; mouse, in vivo, iv, 20 mg/kg): 19.30 ± 1.06 g | Tumor volume ([3]; 0 d): 275 ± 130 mm^3 | RTV ([3]; 2 d): 1.306 ± 0.356 | T/C ([3]; 2 d): 81.24% | Tumor volume ([3]; 2 d): 352 ± 169 mm^3 | RTV ([3]; 4 d): 2.012 ± 0.744 | T/C ([3]; 4 d): 77.07% | Tumor volume ([3]; 4 d): 534 ± 277 mm^3 | RTV ([3]; 6 d): 2.048 ± 0.441 | T/C ([3]; 6 d): 66.86% | Tumor volume ([3]; 6 d): 531 ± 186 mm^3 | RTV ([3]; 8 d): 2.054 ± 0.776 | T/C ([3]; 8 d): 46.77% | Tumor volume ([3]; 8 d): 539 ± 255 mm^3 | Gross tumor volume ([3]; 10 d): 482 ± 216 mm^3 | RTV ([3]; 10 d): 1.846 ± 0.688 | T/C ([3]; 10 d): 36.90% | Gross tumor volume ([3]; 12 d): 534 ± 254 mm^3 | RTV ([3]; 12 d): 2.189 ± 1.212 | T/C ([3]; 12 d): 29.47% | RTV ([3]; 14 d): 2.898 ± 1.741 | T/C ([3]; 14 d): 34.16% | Tumor volume ([3]; 14 d): 682 ± 311 mm^3 | RTV ([3]; 16 d): 3.115 ± 1.969 | T/C ([3]; 16 d): 31.23% | Tumor volume ([3]; 16 d): 730 ± 384 mm^3 | RTV ([3]; 18 d): 3.876 ± 2.645 | T/C ([3]; 18 d): 34.39% | Tumor volume ([3]; 18 d): 873 ± 407 mm^3 | RTV ([3]; 21 d): 3.706 ± 1.796 | T/C ([3]; 21 d): 32.18% | Tumor volume ([3]; 21 d): 872 ± 305 mm^3 | Tumor weight [3, 14]: 1.27 ± 0.61 g | Tumor-inhibition rate [3, 14]: 61.08% | Initial body weight [4]: 22.67 ± 1.37 g | toxicity [4]: obvious toxicity | Inhibition effects on in vitro growth ([5]; 5 × 10^−5M): 66.2% | Inhibition effects on in vitro growth ([5]; 10^−5M): 59.96% | Inhibition effects on in vitro growth ([5]; 10^−6M): 49.99% | Inhibition effects on in vitro growth ([5]; 10^−7M): 16.67% | Inhibition effects on in vitro growth ([5]; 10^−8M): 9.98% | Inhibition effects on in vitro growth ([6]; 5 × 10^−5M): 97.14% | Inhibition effects on in vitro growth ([6]; 10^−5M): 38.94% | Inhibition effects on in vitro growth ([6]; 10^−6M): 8.71% | Inhibition effects on in vitro growth ([6]; 10^−7M): 2.02% | Inhibition effects on in vitro growth ([6]; 10^−8M): 1.71% | Inhibition effects on in vitro growth ([7]; 5 × 10^−5M): 94.85% | Inhibition effects on in vitro growth ([7]; 10^−5M): 16.01% | Inhibition effects on in vitro growth ([7]; 10^−6M): 8.45% | Inhibition effects on in vitro growth ([7]; 10^−7M): 3.48% | Inhibition effects on in vitro growth ([7]; 10^−8M): 1.91% | Inhibition effects on in vitro growth ([8]; 5 × 10^−5M): 67.32% | Inhibition effects on in vitro growth ([8]; 10^−5M): 15.04% | Inhibition effects on in vitro growth ([8]; 10^−6M): 4.45% | Inhibition effects on in vitro growth ([8]; 10^−7M): 3.08% | Inhibition effects on in vitro growth ([8]; 10^−8M): 2.38% | Inhibition effects on in vitro growth ([9]; 5 × 10^−5M): 61.14% | Inhibition effects on in vitro growth ([9]; 10^−5M): 10.55% | Inhibition effects on in vitro growth ([9]; 10^−6M): 8.15% | Inhibition effects on in vitro growth ([9]; 10^−7M): 7.67% | Inhibition effects on in vitro growth ([9]; 10^−8M): 3.41% | Inhibition effects on in vitro growth ([10]; 5 × 10^−5M): 97.26% | Inhibition effects on in vitro growth ([10]; 10^−5M): 24.71% | Inhibition effects on in vitro growth ([10]; 10^−6M): 6.87% | Inhibition effects on in vitro growth ([10]; 10^−7M): 5.63% | Inhibition effects on in vitro growth ([10]; 10^−8M): 4.35% | Inhibition effects on in vitro growth ([11]; 5 × 10^−5M): 68.67% | Inhibition effects on in vitro growth ([11]; 10^−5M): 22.99% | Inhibition effects on in vitro growth ([11]; 10^−6M): 5.18% | Inhibition effects on in vitro growth ([11]; 10^−7M): 3.68% | Inhibition effects on in vitro growth ([11]; 10^−8M): 2.3%

From patent US8859527B2 (priority 2009, dated 2014)
